Values of other authors as cited in patent US20070134339A1, “ZONISAMIDE AND NSAID NANOPARTICULATE FORMULATIONS” (Elan Pharma International, Limited, priority 2005, published 2007).
Values after ≈ are worked out from the molar mass of the structure shown.

Key:
[1] = not given; remark: listed apart in the source
[2] = not given; remark: listed apart in the source

Compound: NS(=O)(=O)Cc1noc2ccccc12 [Zonisamide, 1,2-benzisoxazole-3-methanesulfonamide]
- solubility in 0.1 N HCl (0.1 N HCl): 500 µg/mL (≈ 2.36 mM)
- solubility in water (water): 800 µg/mL (≈ 3.77 mM)
- peak plasma concentrations ([1]; 200-400 mg oral dose, normal volunteers): 2 to 5 µg/mL
- time at which peak plasma concentrations occur ([1]; 200-400 mg oral dose, normal volunteers, without food): 2 to 6 h
- effect of food on bioavailability ([1]; oral, in the presence of food): no effect
- time to maximum concentration ([1]; oral, in the presence of food): 4 to 6 h
- pKa [2]: 10.2
